Test results as given in PMC9814091, “The making of a potent L-lactate transport inhibitor” (Communications Chemistry, 2021).
Like-named read-outs stand apart in the source and are kept apart here.

How the values were obtained:
[1] = tested on: E. coli L-lactate permeases (i.e., LldP and GlcA); assay: [14C]L-lactate transport into E. coli MC4100 (test for a protonophoric effect); assay type: cell-based; details: 100 µM compound
[2] = molecular target: T1, SfMCT (Syntrophobacter fumaroxidans, UniProt A0LNN5); assay: cell-based; assay type: cell-based; details: for times more potent than BA (starting compound): ratio of Ki values versus BA
T1 construct: expressed in transfected cells; host or cells: E. coli JA202 (MC4100 glcA::cat lldP::kan) transformed with pEXT20-SfMCT-3C-10His
T1 sequence (A0LNN5 1-412): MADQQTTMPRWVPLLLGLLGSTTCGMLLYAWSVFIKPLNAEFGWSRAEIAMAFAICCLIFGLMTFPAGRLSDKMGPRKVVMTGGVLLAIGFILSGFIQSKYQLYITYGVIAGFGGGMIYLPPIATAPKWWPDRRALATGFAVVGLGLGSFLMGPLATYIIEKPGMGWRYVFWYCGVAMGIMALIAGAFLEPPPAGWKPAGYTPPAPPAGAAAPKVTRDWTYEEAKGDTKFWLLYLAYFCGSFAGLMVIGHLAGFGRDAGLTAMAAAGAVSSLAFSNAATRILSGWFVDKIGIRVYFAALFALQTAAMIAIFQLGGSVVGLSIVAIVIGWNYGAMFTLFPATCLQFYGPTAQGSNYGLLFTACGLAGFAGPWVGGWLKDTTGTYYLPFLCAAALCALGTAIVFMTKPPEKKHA
Description: The previously characterized ligand binding site provides space to accommodate molecules that are larger than TSA. […] Only molecules containing one carboxylate-group were considered (i.e., monocarboxylates) as R280 (TM8) is the only positively-charged residue in the ligand binding site region. […] The binding site also contains hydrophobic and aromatic residues, which can be involved in hydrophobic and π-stacking interactions with bound molecules. Therefore, the focus of the screen was set on aromatic monocarboxylates, which are summarized in Supplementary Fig. 1. To evaluate the inhibitory effect of the selected molecules, an inhibition assay was set up where the transport of [^14C]L-lactate through SfMCT was measured in the absence and presence of different inhibitors at decreasing concentrations. In a first step, the inhibitory effects of BA, as well as hydroxylated and methylated BA derivatives on L-lactate transport, were investigated at a concentration of 500 µM (Fig. 1A, red).
(§1) Uptake experiments were done as described previously[6],[40]. Overnight precultures of E. coli JA202 (MC4100 glcA::cat lldP::kan)[42], which were transformed with a plasmid carrying SfMCT (pEXT20-SfMCT-3C-10His), were diluted 1:200 into LB-medium supplemented with 100 μg/ml ampicillin. Cultures were grown at 37 °C and 180 r.p.m. in an incubator shaker (Multitron, Infors HT). At OD600 ~0.5, isopropyl-β-D-thiogalactopyranoside was added to the culture to a final concentration of 250 µM to induce SfMCT expression. In the case of E. coli MC4100 (DSM 6574, German Collection of Microorganisms and Cell Cultures), an overnight preculture was diluted 1:200 into LB-medium supplemented with 50 μg/ml streptomycin and grown at 37 °C and 180 r.p.m. in an incubator shaker (Multitron, Infors HT). Bacteria were harvested 4 h post-induction (E. coli JA202) or 6 h post-inoculation (E. coli MC4100) (5200 × g, 10 min, room temperature). The supernatant was discarded and the bacteria were gently resuspended in uptake buffer (20 mM Bis-Tris propane-HCl (pH 6.7), 250 mM KCl). The density of the bacteria suspension was adjusted to OD600 12. Transport experiments were done in a reaction volume of 50 µl, which consisted of 20 µl cell-suspension (2.4 × 10^8 bacteria), 10 µl substrate master mix (67 µM sodium L-lactate spiked with [14C(U)] L-lactic acid sodium salt ([^14C]L-lactate, American Radiolabeled Chemicals) to a specific activity of 0.15 Ci/mmol) and 20 µl monocarboxylate inhibitor solution. […] All monocarboxylate inhibitors were purchased from Merck (i.e., SigmaAldrich) with the exception of 6-methyl-salicylate (6MSA) that was purchased from Fluorochem. Uptake experiments were performed in 2 ml reaction tubes (Eppendorf) at 30 °C under agitation (1000 r.p.m., Thermomixer compact, Eppendorf). After 30 min, reactions were stopped by adding 900 μl stop buffer (20 mM HEPES-NaOH (pH 7.5), 150 mM NaCl) followed by centrifugation (21,000 × g, 4 min, room temperature). Pelleted bacteria were then washed two times with 900 μl stop buffer to remove free radioligand. Finally, bacteria were lysed using 50 μl 5% (w/v) sodium dodecylsulfate and transferred into a 96-well plate (Optiplate, PerkinElmer). 150 µl scintillation cocktail (MicroScint 40, PerkinElmer) were added to each well before measuring each well for 2 min with a scintillation counter (TopCount NXT, PerkinElmer). For data analysis Prism6 (GraphPad Software) was used.

[3] = molecular target: T2, SfMCT Y331F mutant (Syntrophobacter fumaroxidans, UniProt A0LNN5, Y331F); assay type: cell-based; details: 25 µM 1OHN2C; 10 µM N2C, 3PP, 2M3PP
T2 construct: expressed in transfected cells; host or cells: E. coli JA202 (inferred: same uptake protocol as wild type)
T2 sequence (A0LNN5 whole entry Y331F): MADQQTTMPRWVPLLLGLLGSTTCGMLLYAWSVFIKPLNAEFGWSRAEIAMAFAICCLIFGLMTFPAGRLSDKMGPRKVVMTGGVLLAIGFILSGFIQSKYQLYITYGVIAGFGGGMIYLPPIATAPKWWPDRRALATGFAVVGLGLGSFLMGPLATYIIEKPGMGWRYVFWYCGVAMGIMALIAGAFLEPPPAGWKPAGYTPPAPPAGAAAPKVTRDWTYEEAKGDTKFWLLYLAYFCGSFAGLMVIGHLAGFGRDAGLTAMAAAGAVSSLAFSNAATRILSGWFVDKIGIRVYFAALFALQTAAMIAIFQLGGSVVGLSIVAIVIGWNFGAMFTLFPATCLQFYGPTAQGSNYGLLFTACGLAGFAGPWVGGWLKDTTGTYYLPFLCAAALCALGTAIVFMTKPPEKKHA
Experimental: as §1, with “Finally, bacteria were lysed using 50 μl 5% (w/v) sodium dodecylsulfate and transferred into a 96-well plate (Optiplate, PerkinElmer). 150 µl scintillation cocktail (MicroScint 40, PerkinElmer) were added to each well before measuring each well for 2 min with a scintillation counter (TopCount NXT, PerkinElmer). For data analysis Prism6 (GraphPad Software) was used.” left out

[4] = molecular target: T1, SfMCT; design: method as in PMID 31201333; details: cited from earlier work
[5] = molecular target: T1, SfMCT; assay: Transport assay with radiolabeled monocarboxylates as potential SfMCT substrates; assay type: cell-based; details: 40 µM 14C-labeled compound, 0.1 µCi per reaction
[6] = [14C]L-lactate uptake, SfMCT-expressing E. coli JA202, pH 6.7, 30 °C, 30 min, read-out: Ki (inhibition of L-lactate transport)
[7] = inhibitor 25 µM, naphthoate derivatives (Fig. 1A, orange)
[8] = inhibitor 100 µM, methylated SA derivatives and 3OH4MBA (Fig. 1A, blue)
[9] = inhibitor 10 µM, hydroxylated and methylated 3PP derivatives (Fig. 1A, magenta)
[10] = inhibitor 500 µM, BA and hydroxylated and methylated BA derivatives (Fig. 1A, red)

N#CC(C#N)=NNc1cccc(Cl)c1 [CCCP, carbonyl cyanide 3-chlorophenylhydrazone, reference compound]
effect on [14C]L-lactate transport activity of E. coli MC4100 [1]: reduced the uptake activity almost

O=C(O)c1ccc2ccccc2c1 [N2C, 2-naphthoate]
Ki [2, 6]: 2.4 µM
inhibitory effect on L-lactate transport in the screen [2, 7]: strongest reduction of L-lactate transport among the tested naphthoate derivatives
effect on [14C]L-lactate transport activity of E. coli MC4100 [1]: no significant reduction
reduction of L-lactate transport inhibition by the Y331F mutation versus wild type [3]: ~ 2 fold

O=C(O)c1ccccc1 [BA, benzoate]
Ki [2]: 431 µM

Cc1ccc(C(=O)O)c(O)c1 [4MSA, 4-methyl-salicylate]
Ki [2]: 24.4 µM
inhibitory effect on L-lactate transport in the screen [2, 8]: strongest reduction of L-lactate transport among the methylated SA-derivatives

O=C(O)c1ccccc1S [TSA, thiosalicylate]
transport of the compound by SfMCT [4]: non-transported

O=C(O)CCc1cccc(O)c1 [3OH3PP, 3-(3-hydroxyphenyl)-propionate]
inhibitory effect on L-lactate transport in the screen [2, 9]: strongest L-lactate transport reduction among the tested hydroxylated derivatives

Cc1ccc(C(=O)O)cc1 [4MBA, 4-methyl-benzoate]
Ki [2]: 13.4 µM
inhibitory effect on L-lactate transport in the screen [2, 10]: strongest reduction of L-lactate transport activity
times more potent than BA (starting compound) [2]: ~ 30 times

O=C(O)c1ccccc1O [SA, salicylate]
Ki [2]: 362 µM
inhibitory effect on L-lactate transport in the screen [2, 10]: strongest decrease in L-lactate transport activity
transport of the radiolabeled compound by SfMCT [5]: does not transport

O=C(O)/C=C/c1ccccc1 [CA, trans-cinnamate]
Ki [2]: 2.5 µM

O=C(O)CCc1ccccc1 [3PP, 3-phenylpropionate]
Ki [2]: 0.812 µM
inhibitory effect on L-lactate transport in the molecular ruler experiment ([2]; BA, PA, 3PP and 4PB compared (Fig. 1A, black)): most potent inhibitor
times more potent than BA (starting compound) [2]: ~ 530 times
effect on [14C]L-lactate transport activity of E. coli MC4100 [1]: no significant reduction
transport of the radiolabeled compound by SfMCT [5]: does not transport

Cc1ccc(C(=O)O)cc1O [3OH4MBA, 3-hydroxy-4-methyl-benzoate]
inhibitory effect on L-lactate transport in the screen [2, 8]: strongly reduced inhibition of L-lactate transport

Cc1ccccc1CCC(=O)O [2M3PP, 3-(2-methylphenyl)-propionate]
Ki [2, 6]: 0.469 µM
inhibitory effect on L-lactate transport in the screen [2, 9]: strongest inhibitory effect on L-lactate transport among the tested methylated derivatives
times more potent than BA (starting compound) [2]: ~1000 times
effect on [14C]L-lactate transport activity of E. coli MC4100 [1]: no significant reduction
reduction of L-lactate transport inhibition by the Y331F mutation versus wild type [3]: ~ 2 fold

O=C(O)c1ccc2ccccc2c1O [1OHN2C, 1-hydroxy-2-naphthoate]
Ki [2]: 16.2 µM
inhibitory effect on L-lactate transport in the screen [2, 7]: strongest reduction of L-lactate transport among the tested naphthoate derivatives
effect on [14C]L-lactate transport activity of E. coli MC4100 [1]: no significant reduction
reduction of L-lactate transport inhibition by the Y331F mutation versus wild type [3]: ~ 2 fold
